melting point | SMILES
192 to 200 °C | Nc1ccc(C(=O)N2CCC=Cc3sccc32)c(Cl)c1
182 to 184 °C | CCOC(=O)c1ncc2[nH]c3cccc(Cc4ccccc4Cl)c3c2c1COC
159 to 160 °C | CN(Cc1cc(C(F)(F)F)cc(C(F)(F)F)c1)C(=O)c1c(-c2ccccc2C(F)(F)F)c2ccccc2c(=O)n1C
128 to 129 °C | Brc1ccccc1-n1cnc2cnc3ccc(-c4ccccc4)cc3c21
96 to 98 °C | COC(=O)c1cc2ccc(SCCCc3cc4c(cc3OCc3ccccc3)CC(CCc3ccccc3)O4)cc2nc1OC (stereo not given)
55 to 56 °C | C[Si](C)(C)OC1(C#N)CCC(C(=O)NCc2cccc3ccccc23)c2ccccc21 (stereo not given)
67 to 68 °C | O=[N+]([O-])c1ccc(-c2ccc(I)cc2C(F)(F)F)c(C(F)(F)F)c1
172 to 174 °C | Nc1sc(-c2ccc(F)cc2)cc1C(=O)O
111 to 113 °C | CCOC(=O)C1(C)CN(Cc2ccccc2)C(=O)C(=C2SC=CS2)C1=O (stereo not given)
199 to 200 °C | O=C(O)CCCc1oc(-n2cnc3ccccc32)nc1-c1ccc(Cl)cc1
133 °C | N#Cc1ccc(NC(=NS(=O)(=O)c2ccccc2)NCC(=O)O)cc1
57 to 58 °C | CCOC(=O)c1ccc(Oc2ccc(C(C)=C3SCCCS3)cc2)cc1
194 to 195 °C | Nc1cc(-c2ccoc2)ccc1Nc1cccc(-n2cccc2)c1
95 to 97 °C | Cc1cc(N2CCC[C@H]2COc2ccc(CC3SC(=O)NC3=O)cc2)nc2ccccc12 (stereo not given in full)
218 to 220 °C | Cc1nc(-n2ccc(OCC3CC3)cc2=O)sc1C(=O)NCc1ccccc1
59.8 to 63.5 °C | O=C(Cc1cccnc1)N1CCC(=C2c3ccc(Cl)cc3CCc3c(Cl)ccnc32)CC1
88 to 89 °C | COc1cccnc1Oc1cccc(C#N)c1
182 °C | CC(C)(C)c1ccc(/C=C/C(=O)Nc2ccc3c(ccn3CCO)c2)cc1
188 to 189 °C | COc1ccc(S(=O)(=O)Nc2cccnc2Nc2ccc(C)cc2)cc1
184 °C | OC1CSC(Oc2cc(-c3ccnc(F)c3)cc(F)c2F)C(O)C1O (stereo not given)
138 °C | COc1ccc(CC(=O)NCc2ccccc2-c2ccccc2C(=O)NCc2ccc(F)cc2F)cc1

melting point | SMILES
85 to 90 °C | Nc1ccccc1CNC(=O)C1Cc2ccccc2N1S(=O)(=O)c1ccc(-c2ccc(F)cc2Cl)cc1 (stereo not given)
184 to 185 °C | CN(c1ccc(F)cc1)c1nc(=O)c2cccnc2s1
208 to 211 °C | CCOCc1nc2c(N)nc3cc(-c4cccnc4)ccc3c2n1CCN1CCNCC1
188 to 190 °C | Cc1cccc(C)c1N(C(C)CN1C(=O)c2ccccc2C1=O)S(C)(=O)=O (stereo not given)
150 to 151 °C | OC1(c2ccc(F)cc2)Cc2ccccc2C2=NCCN21 (stereo not given)
232 to 236 °C | CC(C)c1nc2ccccn2c(=O)c1-c1ccc(NC2CCN(C(=O)OC(C)(C)C)C2)cc1 (stereo not given)
136 to 138 °C | CCc1cc(NCc2ccc(-c3ccccc3-c3nnn[nH]3)cc2)n2ncc(Cl)c2n1
235 °C | O=C(O)CSc1c(-c2cc(Cl)ccc2O)c2cc(C(F)(F)F)ccc2[nH]c1=O
140 to 146 °C | COc1ccc2nc(COc3ccc(CC(Nc4ccccc4C(=O)c4ccccc4)C(=O)O)cc3)n(C)c2c1 (stereo not given)
158 to 160 °C | Cc1cc(F)ccc1-c1nc(NC(C)(CO)CO)nc2c1ccc(=O)n2-c1c(F)cccc1F
321 to 323 °C | Cn1c(=O)c(-c2ccc(Cl)cc2Cl)cc2c3cc(-c4nnc(N)s4)ccc3n(C)c21
93 to 96 °C | CC(C)(C)OC(=O)Nc1ccc(-c2cccc(F)c2)cc1[N+](=O)[O-]
127 to 130 °C | Cc1ccccc1C(=O)CN1C(=O)C(NC(=O)Nc2cccc(CC(O)=S)c2)CN(C(=O)C(C)(C)C)c2ccccc21 (stereo not given)
239 to 240 °C | Cn1c(=O)c(-c2c(Cl)cccc2Cl)cc2cnc(N)cc21
169 to 171 °C | COc1cccc(OC)c1CNC(=O)c1ccc2cnccc2n1
161 to 162 °C | COc1cccc(NC(=O)NC(C(C)C)C2CCN(Cc3ccc(Cl)c(Cl)c3)CC2)c1 (racemic)
240 to 242 °C | COc1ccc(Oc2nc(Nc3cccc(C(=O)O)c3)nc(Oc3ccc(C#N)cc3)n2)cc1
199 to 200 °C | CN(C)c1ccc(C(=O)c2ccc(O)cc2)cc1
121 to 122 °C | CN(C)CCOC(=O)c1cc(F)ccc1Nc1ccnc2c(Cl)cccc12
214 °C | COC(=O)Nc1cccc2c1C(=O)c1ccccc1C2=O

The remaining lines, values behind:

SMILES | melting point
CCCCCCCCCCCCCCCCCCSC(=O)Nc1ccc(NC(=O)NS(=O)(=O)c2ccc3ccccc3c2)cc1 | 193 °C
CCCc1c(OCCCCCC(=O)c2cc(O)c(O)cc2F)ccc(C(=O)O)c1O | 193 to 195 °C
COP(=S)(OC)SCc1cc(=O)[nH]c(C(C)C)n1 | 89 to 93 °C
O=C1OC(=O)c2cc3c(cc21)OCO3 | 189 to 191 °C
NS(=O)(=O)c1ncccc1O | 162 to 164 °C
C=CCC(O)(C(=O)N[C@H]1CN2CCC1CC2)c1cccs1 (stereo not given in full) | 54.4 to 58.3 °C
CCOC(=O)C1C(=O)N(c2ccc(Cl)c(Cl)c2)N=C1C (stereo not given) | 147 to 148 °C
O=c1[nH]cc(Cl)c2ccc(CO)cc12 | 266 to 268 °C
CCc1cccc(C)c1CNc1cc(C(=O)OC)cn2c(C)nnc12 | 214 °C
O=C(Cl)N1CCNC1=O | 150 °C
COCCOCCOCCOCCNS(=O)(=O)c1ccc(NC=C2C(=O)Nc3ccc4ncsc4c32)cc1 | 158 to 159 °C
CC(C)(C)C(=O)OCOC(=O)c1c2n(c3cc4c(cc3c1=O)OCO4)CCS2 | 229 to 230 °C
Clc1cc(Cl)nc(N2CCOCC2)n1 | 140 °C
O=C(O)CCCCCCCCNS(=O)(=O)c1ccc(Br)cc1 | 124 to 125 °C
O=C1NC(C(Cl)(Cl)Cl)Nc2ccccc21 (stereo not given) | 201 to 202 °C
COc1c(C(C)=O)c(OC2SCC(O)C(O)C2O)c(OC)c2occc12 (stereo not given) | 207 to 209 °C
CN(Cc1ccccc1)c1nc(N2CCC(N(C)C)CC2)nc2c(N3CCOCC3)ncnc12 | 122 °C
CC(=O)NC(CCc1ccccc1)(COC(C)=O)COC(C)=O | 116 to 117 °C
CCN(CC)Cc1c(Cl)ccc2cc(Cl)cnc12 | 54 °C
CCC(C)NC1=NS(=O)(=O)c2ccc(Cl)cc2N1 (stereo not given) | 242 to 245 °C

SMILES | melting point
CN(C)c1ccc2c(c1)NC(=O)CC2 | 154 to 156 °C
CCCCOc1cc(CC(=O)O)n(Cc2ccc(Cl)cc2Cl)n1 | 105 to 108 °C
Cc1c(S(=O)(=O)c2ccc(=O)[nH]n2)oc2ccc(Cl)cc12 | 247 to 248 °C
COc1cc(C=C(N)C(C)=O)ccc1OCC1CO1 (stereo not given) | 173 to 174 °C
Nc1nc(NC(CO)CO)c2ncn(C3C=CC(CO)C3)c2n1 (stereo not given) | 160 to 162 °C
O=C1OCCC1Oc1ccc(C(F)(F)F)cc1[N+](=O)[O-] (stereo not given) | 128 to 129 °C
COC(=O)c1ccc2c(c1)N(C(C)C)C(=O)C(C)(C)O2 | 75 to 77 °C
CC(OC(=O)c1ccccc1)P(=O)(O)OC(CCCCN)C(=O)N1CCCC1C(=O)O (stereo not given) | 186 to 192 °C
CC1CC(=O)NN=C1c1ccc(N2CCN(C#N)CC2)c([N+](=O)[O-])c1 (stereo not given) | 247 to 248 °C
O=C(O)Cc1c(C(=O)c2ccc3c(c2)OCCO3)[nH]c2cc(Cl)ccc12 | 233 °C
O=C(O)C(CCc1ccc2c(c1)CCO2)NC(=O)C(F)(F)F (stereo not given) | 125 °C
C[C@H]1C[C@H](OC(=O)C(C)(C)Oc2ccc(CCNC(=O)c3ccc(Cl)cc3)cc2)CC(C)(C)C1 (relative stereo) | 100 °C
N#Cc1cccc2[nH]c(C(=O)O)cc(=O)c12 | 278 to 279 °C
CCn1cc(C(=O)O)c(=O)c2c(F)c(F)c(F)c(F)c21 | 229 to 230 °C
N#CC(C(=O)C(F)(F)F)c1cc(Cl)cc(Cl)c1Cl (stereo not given) | 160 to 163 °C
Cc1ccc(C2NC(C(=O)O)C(C)(C)S2)cc1 (stereo not given) | 89 to 90 °C
COc1ccc(C(C)C)c(NC(=O)CN2CCN(CCCSc3nc4c(C)c(Cl)cc(C(C)C)c4o3)CC2)c1C(C)C | 126 to 127 °C
CCCc1nccn1C(C)COCC1=C(C(=O)OCC)C(c2ccccc2Cl)C2=C(CCCC2=O)N1 (stereo not given) | 127 to 131 °C
CCOC(=O)c1cn([C@@H](C)CO)c2c(F)c(N3CCN(C)CC3)c(F)cc2c1=O | 195 to 197 °C
CCNC(=O)NCc1ccc(/C=C/C(c2cc(Cl)cc(Cl)c2)C(F)(F)F)cc1Cl (stereo not given) | 177 to 178 °C

SMILES | melting point
O=c1cnc2cc(Cl)cc(Cl)c2[nH]1 | 228 to 229 °C
Cc1nc2ncnn2c(O)c1Br | 269 °C
CC(C)c1nn(-c2ccc(C(F)(F)F)cn2)cc1CCCCOc1ccc(CCC(=O)O)cc1 | 144 to 145 °C
CCCCN1C(N)=NS(=O)(=O)NC1Oc1cccc(C)c1 (stereo not given) | 217 to 219 °C
CC(C)(N)Cc1c[nH]c2ccc(Cl)cc12 | 156 to 158 °C
CC1OC(n2cnc3c(N)nc(F)nc32)C(O)C1O (stereo not given) | 244 to 245 °C
CC(C)(C)NC(=O)c1nn(-c2ccc(F)cc2F)c2c1[C@@H]1CC[C@@]2(C)C1(C)C | 161 to 163 °C
CS(=O)(=O)c1ccccc1S | 57 °C
CCOC(=O)c1ccc2nc(NC)[nH]c2c1 | 247 to 249 °C
NC(=NC(=O)c1nc(Cl)c(N)nc1N)NCCCCCCCCCCCC(=O)O | 194 to 196 °C
Cc1ccc(C(C)(C)C)cc1P(=O)(O)c1cc(C(C)(C)C)ccc1C | 182 to 183 °C
CC12CCC(O)CC1CCC1C2CCC2(C)C(OCCO)CCC12 (stereo not given) | 181 to 183 °C
COc1ncc(NS(=O)(=O)c2cccc(Cl)c2Cl)c(OC)n1 | 124 to 126 °C
O=P(O)(O)CCCCc1ccccc1 | 88 to 90 °C
Nc1nnc(N2CCN(C(=O)OCc3ccccc3)CC2)[nH]1 | 157 to 159 °C
COC(=O)c1cccc(CC#N)c1[N+](=O)[O-] | 77 to 80 °C
CNC(=S)SCCC(=O)N1CCC[C@H]1C(=O)O | 127 to 129 °C
CN(C=O)CC1(N2CCCCC2)CCCCC1 | 94 °C
Cc1cccnc1S(=O)(=O)NC(C)(C)C | 107 to 110 °C

Reference: a melting point compilation (Tetko et al.; mined from patent text by program, amines drawn as free bases though some values may be those of a salt)
